Results published in patent publication US20220221458A1, “NOROVIRUS-BINDING PEPTIDE” (Kao Corporation, priority 2019, published 2022).

Tested on: norovirus VLPs (GII.4, GII.3, GII.17)
Experiment: In vitro selection by cDNA display against VLPs with appearance frequency analysis of sequences
Conditions: count among peptide aptamer sequences obtained after in vitro selection cycles (7 cycles GII.4, 5 cycles GII.3 and GII.17)
Protocol: The constructed cDNA display and VLPs were incubated in 100 μL of a dialysis selection buffer (20 mM HEPES (pH 7.4), 150 mM NaCl, and 0.05% s Tween 20) at the concentrations shown in Table 9 below at 25° C. for 30 minutes. Subsequently, the resultant was diluted to 1 mL with the dialysis selection buffer, and was put in Float-A-Lyzer G2 Dialysis Device CE, 1000kD MWCO (manufactured by Spectrum Laboratories, Inc.) and was dialyzed with 1 L of the dialysis selection buffer as the external solution at 25° C. During the dialysis, the external solution was replaced with new one 3 times every 2 hours, and the dialysis was performed overnight (for 8 hours) after the 4th replacement. The dialysis product was concentrated with Amicon Ultra 100K (manufactured by Merck Millipore S.A.S.) at 14,000×g for 5 minutes.
To an immunoplate (C-BOTTOM, CLEAR, MICROLON (registered trademark), HIGH BINDING, manufactured by Greiner Bio-One), 100 μL of 3 μg/mL GII.3 or GII.17 VLP solution was added and immobilization was performed at 4° C. overnight. Subsequently, the solution was discarded, and 200 μL of a blocking agent (EMD Millipore™ Blok™ NSB Blocking agents, Thermo Fisher Scientific) was added, followed by gently stirring at room temperature for 2 hours for blocking. On this occasion, wells not immobilizing the VLP were also subjected to similar blocking to be used in preselection.
The solution was discarded from the wells, the wells were washed with 200 μL of a wash buffer (10 mM Hepes (pH 7.4), 150 mM NaCl, and 0.05% Tween 20) three times, and 100 μL of cDNA display (constructed from 1.5 pmol of mRNA-linker) was then put in the wells not immobilizing the VLP, followed by gently stirring at room temperature for 30 minutes to perform preselection. Subsequently, the supernatant containing cDNA display that had not bound to the blocking agent was put in the wells immobilizing the VLP, followed by gently stirring at room temperature for 30 minutes to be bound to the VLP. The supernatant was discarded, washing with 100 μL of the wash buffer was performed four times, and 100 μL of a 5′ SDS solution was then added, followed by incubation at 50° C. for 15 minutes to elute the bound cDNA display.
Subsequently, the VLP-cDNA display complex obtained above was diluted to 100 μL with a dialysis selection buffer, and 10 μL of a coprecipitating agent (Quick-Precip Plus Solution, manufactured by EdgeBio) and 220 μL of 100% ethanol were added, followed by centrifugation at 20,000×g for 5 minutes. Subsequently, the supernatant was discarded, and 1 mL of 70, ethanol was added for rinsing. […] The PCR program was (a) 98° C. for 2 minutes, (b) 95° C. for 20 seconds, (c) 69° C. for 20 seconds, (d) 72° C. for 20 seconds (steps (b) to (d) were performed 25 cycles), and (e) 72° C. for 1 minute.
After the in vitro selection cycle (7 cycles for GII.4 and 5 cycles for GII.3 and GII.17 based on the libraries of 7 cycles obtained by GII.4 dialysis), a sequence library was prepared by the following method, and the sequence information was analyzed. The preparation of the sequence library and the sequencing were performed according to the 16S Metagenomic Sequencing Library Preparation protocol (manufactured by Illumina, Inc.).
The Fastq file of the obtained sequence was converted to a Fasta file, all of the obtained sequences were simultaneously translated from the first base of the start codon (ATG) at position 115 to the third base of the cysteine codon (TGC) at position 156 of the library sequence (SEQ ID NO: 279) using software MEGA.

Row | Substance | Appearance Frequency
1 | 53 (ACRSAF; Designed peptide) [compound 53] | 9
2 | 5 (RCSHLR; Designed peptide) [compound 5] | 18
3 | 72 (DFGQSS; Designed peptide) [compound 72] | 8
4 | 82 (ILGGHS; Designed peptide) [compound 82] | 8
5 | 228 (QRVSFL; Designed peptide) [compound 228] | 6
6 | 180 (GFGQWI; Designed peptide) [compound 180] | 6
7 | 34 (SVHTHR; Designed peptide) [compound 34] | 11
8 | 177 (FTQDAV; Designed peptide) [compound 177] | 6
9 | 52 (VRYPEI; Designed peptide) [compound 52] | 10
10 | 81 (HRSNGH; Designed peptide) [compound 81] | 8
11 | 42 (GNSPYT; Designed peptide) [compound 42] | 10
12 | 96 (VGRFPQ; Designed peptide) [compound 96] | 8
13 | 162 (YRARMS; Designed peptide) [compound 162] | 7
14 | 266 (YGKQRG; Designed peptide) [compound 266] | 6
15 | 258 (TNYLSF; Designed peptide) [compound 258] | 6
16 | 150 (STVRHR; Designed peptide) [compound 150] | 7
17 | 122 (ISRRGH; Designed peptide) [compound 122] | 7
18 | 148 (RTGLLS; Designed peptide) [compound 148] | 7
19 | 174 (FGFREL; Designed peptide) [compound 174] | 6
20 | 78 (GQRLTV; Designed peptide) [compound 78] | 8
21 | 28 (VMMQCP; Designed peptide) [compound 28] | 12

Row | Substance | Appearance Frequency
22 | 99 (VYIMNH; Designed peptide) [compound 99] | 8
23 | 30 (DRYSAW; Designed peptide) [compound 30] | 11
24 | 32 (IMSSIG; Designed peptide) [compound 32] | 11
25 | 185 (GRNAGR; Designed peptide) [compound 185] | 6
26 | 41 (GNIPGH; Designed peptide) [compound 41] | 10
27 | 98 (VVWFTD; Designed peptide) [compound 98] | 8
28 | 11 (GHPNPR; Designed peptide) [compound 11] | 15
29 | 90 (SSCVMP; Designed peptide) [compound 90] | 8
30 | 243 (RTLLVQ; Designed peptide) [compound 243] | 6
31 | 193 (HMMSRL; Designed peptide) [compound 193] | 6
32 | 223 (NSRYFT; Designed peptide) [compound 223] | 6
33 | 104 (DRVQSR; Designed peptide) [compound 104] | 7
34 | 102 (AFTSHW; Designed peptide) [compound 102] | 7
35 | 38 (AGYPRY; Designed peptide) [compound 38] | 10
36 | 230 (QYCFVG; Designed peptide) [compound 230] | 6
37 | 10 (GHHVSV; Designed peptide) [compound 10] | 15
38 | 56 (HRRGPS; Designed peptide) [compound 56] | 9
39 | 126 (LFHPWV; Designed peptide) [compound 126] | 7
40 | 77 (GMLRFP; Designed peptide) [compound 77] | 8
41 | 158 (VWYWTS; Designed peptide) [compound 158] | 7
